Assay [1] concerns the target T1, human calcitonin receptor (hCTR2) (Homo sapiens, UniProt P30988).
T1 construct: expressed in transfected cells
T1 sequence (P30988 25-474): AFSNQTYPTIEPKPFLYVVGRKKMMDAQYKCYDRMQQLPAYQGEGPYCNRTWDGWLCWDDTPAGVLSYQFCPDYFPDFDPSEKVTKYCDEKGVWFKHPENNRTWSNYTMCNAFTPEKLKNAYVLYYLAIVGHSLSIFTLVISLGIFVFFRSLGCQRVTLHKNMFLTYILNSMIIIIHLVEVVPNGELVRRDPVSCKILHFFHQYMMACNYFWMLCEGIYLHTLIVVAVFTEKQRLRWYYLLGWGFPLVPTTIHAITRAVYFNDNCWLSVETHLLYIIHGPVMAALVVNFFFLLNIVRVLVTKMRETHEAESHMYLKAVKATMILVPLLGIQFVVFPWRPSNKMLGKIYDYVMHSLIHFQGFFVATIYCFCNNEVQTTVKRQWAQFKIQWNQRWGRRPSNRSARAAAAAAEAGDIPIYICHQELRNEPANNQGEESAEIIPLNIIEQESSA
Nature of the assay: hCTR2 assay: induction of cAMP (AlphaScreen cAMP Assay kit) in COS7 cells expressing hCTR2. The assay is classed as cell-based. In short, it runs like this:
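Stable hCTR2 clone in RAMP-naive COS7 cells; peptides titrated in Tyrode buffer (pH 7.4) with 100 µM IBMX, 0.1% casein, 15 min at 37° C. cAMP read by AlphaScreen after lysis; EC50 and efficacy relative to pramlintide from 4PL fit.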

The target in assay [2] is T2, human amylin receptor 3 (hAMYR3) consisting of hCTR2 co-expressed with human Receptor Activity Modifying Protein 3 (hRAMP3) (Homo sapiens, UniProt O60896+P30988).
T2 construct: expressed in transfected cells
T2 sequence (P30988 25-474): T1 sequence (P30988 25-474)
T2 sequence (O60896 24-148 partner): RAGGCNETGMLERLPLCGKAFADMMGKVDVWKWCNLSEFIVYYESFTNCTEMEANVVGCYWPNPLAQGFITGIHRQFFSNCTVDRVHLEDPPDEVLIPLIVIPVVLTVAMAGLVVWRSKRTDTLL
Nature of the assay: hAMYR3 assay: induction of cAMP (AlphaScreen cAMP Assay kit) in COS7 cells expressing hAMYR3. The assay is classed as cell-based. In short, it runs like this: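 Stable COS7 clone co-expressing hCTR2 and hRAMP3, stimulated 15 min at 37° C with increasing peptide in Tyrode buffer pH 7.4 with 100 µM IBMX and 0.1% casein. cAMP measured by AlphaScreen after lysis; EC50 and % efficacy versus pramlintide from 4PL fit.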
Background: In Alpha technology, singlet oxygen from a donor bead excites a nearby acceptor bead.

Where [3] appears, read: cAMP induction in COS7 cells expressing hCTR2, average of a minimum of 3 determinations, read-out: hCTR2 EC50.
Setting [4] is: cAMP induction in COS7 cells expressing hAMYR3, average of a minimum of 3 determinations, read-out: hAMY R3 EC50.

Molecules are shown by their SMILES. Where two headings read alike, the source gives them in different places. Numbered stars: 1 amine (or outer) side, 2 acyl side, 3 side chain; on linkers, the order of the positions; unused ones are H or OH. Bridge positions count the residues as written; N and C are the ends. Square brackets hold non-standard residues; d marks the D form. Peptide text beside a SMILES is read from it. * marks the point of attachment. C20 diacid = O=C(O)CCCCCCCCCCCCCCCCCCC(=O)*; Pro(4R-NH2) = N[C@H]1CN[C@H](C(=O)O)C1; γGlu = O=C(O)[C@H](CCC(=O)[*:2])N[*:1]; Hyp = O=C(O)[C@@H]1C[C@@H](O)CN1; NMeI = CC[C@H](C)[C@H](NC)C(=O)O; Aze = O=C(O)[C@@H]1CCN1; Sar = CNCC(=O)O

For orientation: EC50 means the concentration at which the effect is half-maximal. For the compound `CC[C@H](C)[C@@H](C(=O)N[C@@H](CC(C)C)C(=O)N[C@@H](CO)C(=O)N[C@@H](CO)C(=O)N[C@H](C(=O)N[C@@H](CCC(=O)O)C(=O)N[C@H](C(=O)NCC(=O)N[C@@H](CO)C(=O)N[C@@H](CCC(=O)O)C(=O)N[C@H](C(=O)N1CCC[C@H]1C(N)=O)[C@@H](C)O)C(C)C)[C@@H](C)O)N(C)C(=O)[C@H](C)NC(=O)CN(C)C(=O)[C@H](Cc1ccccc1)NC(=O)[C@H](CO)NC(=O)[C@H](CO)NC(=O)[C@H](CO)NC(=O)[C@H](CO)NC(=O)[C@H](CCCNC(=N)N)NC(=O)[C@H](Cc1c[nH]cn1)NC(=O)[C@H](CC(C)C)NC(=O)[C@H](Cc1ccccc1)NC(=O)[C@H](CCC(=O)O)NC(=O)[C@H](C)NC(=O)[C@H](CC(C)C)NC(=O)[C@H](CCCNC(=N)N)NC(=O)[C@H](CCC(N)=O)NC(=O)[C@@H](NC(=O)[C@H](C)NC(=O)[C@@H]1CSSC[C@H](NC(=O)[C@H](CCCNC(=N)N)NC(=O)CC[C@H](NC(=O)CCCCCCCCCCCCCCCCCCC(=O)O)C(=O)O)C(=O)N[C@@H](CC(N)=O)C(=O)N[C@@H]([C@@H](C)O)C(=O)N[C@@H](C)C(=O)N[C@@H]([C@@H](C)O)C(=O)N1)[C@@H](C)O` [Compound 76, [19CD]-isoGlu-RC()NTATC()ATQRLAEFLHRSSSSF-Gly(Me)-A-Ile(Me)-LSSTEVGSETP-NH2] ({C20 diacid-γGlu}-RCNTATCATQRLAEFLHRSSSSF[Sar]A[NMeI]LSSTEVGSETP-NH2; disulfide 2-7), the half-maximal effective concentration (EC50) was 0.19 nM in assay [1] (setting [3]) and 0.24 nM in assay [2] (setting [4]).
`CC[C@H](C)[C@@H](C(=O)N[C@@H](CC(C)C)C(=O)N[C@@H](CO)C(=O)N[C@@H](CO)C(=O)N[C@H](C(=O)N[C@@H](CCC(=O)O)C(=O)N[C@H](C(=O)NCC(=O)N[C@@H](CO)C(=O)N[C@@H](CCC(=O)O)C(=O)N[C@H](C(=O)N1CCC[C@H]1C(N)=O)[C@@H](C)O)C(C)C)[C@@H](C)O)N(C)C(=O)[C@H](C)NC(=O)CN(C)C(=O)[C@H](Cc1ccccc1)NC(=O)[C@H](CO)NC(=O)[C@H](CO)NC(=O)[C@H](CCCNC(=N)N)NC(=O)[C@H](Cc1c[nH]cn1)NC(=O)[C@H](CC(C)C)NC(=O)[C@H](Cc1ccccc1)NC(=O)[C@H](CCC(=O)O)NC(=O)[C@H](C)NC(=O)[C@H](CC(C)C)NC(=O)[C@H](CCCNC(=N)N)NC(=O)[C@H](CCC(N)=O)NC(=O)[C@@H](NC(=O)[C@H](C)NC(=O)[C@@H]1CSSC[C@H](NC(=O)[C@H](CCCNC(=N)N)NC(=O)CC[C@H](NC(=O)CCCCCCCCCCCCCCCCCCC(=O)O)C(=O)O)C(=O)N[C@@H](CC(N)=O)C(=O)N[C@@H]([C@@H](C)O)C(=O)N[C@@H](C)C(=O)N[C@@H]([C@@H](C)O)C(=O)N1)[C@@H](C)O` [Compound 82, [19CD]-isoGlu-RC()NTATC()ATQRLAEFLHRSSF-Gly(Me)-A-Ile(Me)-LSSTEVGSETP-NH2] ({C20 diacid-γGlu}-RCNTATCATQRLAEFLHRSSF[Sar]A[NMeI]LSSTEVGSETP-NH2; disulfide 2-7): the EC50 was 0.07 nM in assay [1] (setting [3]) and 0.12 nM in assay [2] (setting [4]).
In the case of `CC[C@H](C)[C@@H](C(=O)N[C@@H](CC(C)C)C(=O)N[C@@H](CO)C(=O)N[C@@H](CO)C(=O)N[C@H](C(=O)N[C@@H](CC(N)=O)C(=O)N[C@H](C(=O)NCC(=O)N[C@@H](CO)C(=O)N[C@@H](CC(N)=O)C(=O)N[C@H](C(=O)N1C[C@H](O)C[C@H]1C(N)=O)[C@@H](C)O)C(C)C)[C@@H](C)O)N(C)C(=O)[C@H](C)NC(=O)CN(C)C(=O)[C@H](Cc1ccccc1)NC(=O)[C@H](CC(N)=O)NC(=O)[C@H](CC(N)=O)NC(=O)[C@H](CO)NC(=O)[C@H](CO)NC(=O)[C@H](CCCNC(=N)N)NC(=O)[C@H](Cc1c[nH]cn1)NC(=O)[C@H](CC(C)C)NC(=O)[C@H](Cc1ccccc1)NC(=O)[C@H](CCC(=O)O)NC(=O)[C@H](C)NC(=O)[C@H](CC(C)C)NC(=O)[C@H](CCCNC(=N)N)NC(=O)[C@H](CCC(N)=O)NC(=O)[C@@H](NC(=O)[C@H](C)NC(=O)[C@@H]1CSSC[C@H](NC(=O)[C@H](CCCNC(=N)N)NC(=O)CC[C@H](NC(=O)CCCCCCCCCCCCCCCCCCC(=O)O)C(=O)O)C(=O)N[C@@H](CC(N)=O)C(=O)N[C@@H]([C@@H](C)O)C(=O)N[C@@H](C)C(=O)N[C@@H]([C@@H](C)O)C(=O)N1)[C@@H](C)O` [Compound 105, [19CD]-isoGlu-RC()NTATC()ATQRLAEFLHRSSNNF-Gly(Me)-A-Ile(Me)-LSSTNVGSNT-Hyp-NH2] ({C20 diacid-γGlu}-RCNTATCATQRLAEFLHRSSNNF[Sar]A[NMeI]LSSTNVGSNT[Hyp]-NH2; disulfide 2-7), the values for the EC50 in assay [1] and in assay [2] were 0.083 nM and 0.092 nM, respectively.
For the compound `CC[C@H](C)[C@@H](C(=O)N[C@@H](CC(C)C)C(=O)N[C@@H](CO)C(=O)N[C@@H](CO)C(=O)N[C@H](C(=O)N[C@@H](CC(N)=O)C(=O)N[C@H](C(=O)NCC(=O)N[C@@H](CO)C(=O)N[C@@H](CC(N)=O)C(=O)N[C@H](C(=O)N1CC[C@H]1C(N)=O)[C@@H](C)O)C(C)C)[C@@H](C)O)N(C)C(=O)[C@H](C)NC(=O)CN(C)C(=O)[C@H](Cc1ccccc1)NC(=O)[C@H](CC(N)=O)NC(=O)[C@H](CC(N)=O)NC(=O)[C@H](CO)NC(=O)[C@H](CO)NC(=O)[C@H](CCCNC(=N)N)NC(=O)[C@H](Cc1c[nH]cn1)NC(=O)[C@H](CC(C)C)NC(=O)[C@H](Cc1ccccc1)NC(=O)[C@H](CCC(=O)O)NC(=O)[C@H](C)NC(=O)[C@H](CC(C)C)NC(=O)[C@H](CCCNC(=N)N)NC(=O)[C@H](CCC(N)=O)NC(=O)[C@@H](NC(=O)[C@H](C)NC(=O)[C@@H]1CSSC[C@H](NC(=O)[C@H](CCCNC(=N)N)NC(=O)CC[C@H](NC(=O)CCCCCCCCCCCCCCCCCCC(=O)O)C(=O)O)C(=O)N[C@@H](CC(N)=O)C(=O)N[C@@H]([C@@H](C)O)C(=O)N[C@@H](C)C(=O)N[C@@H]([C@@H](C)O)C(=O)N1)[C@@H](C)O` [Compound 107, [19CD]-isoGlu-RC()NTATC()ATQRLAEFLHRSSNNF-Gly(Me)-A-Ile(Me)-LSSTNVGSNT-Aze-NH2] ({C20 diacid-γGlu}-RCNTATCATQRLAEFLHRSSNNF[Sar]A[NMeI]LSSTNVGSNT[Aze]-NH2; disulfide 2-7), the EC50 in assay [1] was 0.18 nM; in assay [2], 0.52 nM.
The matching figures for `CC[C@H](C)[C@@H](C(=O)N[C@@H](CC(C)C)C(=O)N[C@@H](CO)C(=O)N[C@@H](CO)C(=O)N[C@H](C(=O)N[C@@H](CC(N)=O)C(=O)N[C@H](C(=O)NCC(=O)N[C@@H](CO)C(=O)N[C@@H](CC(N)=O)C(=O)N[C@H](C(=O)N1C[C@H](N)C[C@H]1C(N)=O)[C@@H](C)O)C(C)C)[C@@H](C)O)N(C)C(=O)[C@H](C)NC(=O)CN(C)C(=O)[C@H](Cc1ccccc1)NC(=O)[C@H](CC(N)=O)NC(=O)[C@H](CC(N)=O)NC(=O)[C@H](CO)NC(=O)[C@H](CO)NC(=O)[C@H](CCCNC(=N)N)NC(=O)[C@H](Cc1c[nH]cn1)NC(=O)[C@H](CC(C)C)NC(=O)[C@H](Cc1ccccc1)NC(=O)[C@H](CCC(=O)O)NC(=O)[C@H](C)NC(=O)[C@H](CC(C)C)NC(=O)[C@H](CCCNC(=N)N)NC(=O)[C@H](CCC(N)=O)NC(=O)[C@@H](NC(=O)[C@H](C)NC(=O)[C@@H]1CSSC[C@H](NC(=O)[C@H](CCCNC(=N)N)NC(=O)CC[C@H](NC(=O)CCCCCCCCCCCCCCCCCCC(=O)O)C(=O)O)C(=O)N[C@@H](CC(N)=O)C(=O)N[C@@H]([C@@H](C)O)C(=O)N[C@@H](C)C(=O)N[C@@H]([C@@H](C)O)C(=O)N1)[C@@H](C)O` [Compound 110, [19CD]-isoGlu-RC()NTATC()ATQRLAEFLHRSSNNF-Gly(Me)-A-Ile(Me)-LSSTNVGSNT-Apr-NH2] ({C20 diacid-γGlu}-RCNTATCATQRLAEFLHRSSNNF[Sar]A[NMeI]LSSTNVGSNT[Pro(4R-NH2)]-NH2; disulfide 2-7): 0.16 nM and 0.087 nM.

The values above are taken from patent EP3046573B1, “AMYLIN ANALOGUES” (Zealand Pharma A/S, priority 2013, dated 2015).
